Source: US20250275540A1, “USE OF PROTOPORPHYRINOGEN OXIDASE” (BEIJING DABEINONG BIOTECHNOLOGY CO., LTD., priority 2022, published 2025)

Test system: transgenic maize plants
Experiment: Detection of the herbicide tolerance of the transgenic maize plants
Type: in vivo
Conditions: for The grade of pesticide damage/plant: 0 / The grade of pesticide damage/plant: 1 / The grade of pesticide damage/plant: 2 / The grade of pesticide damage/plant: 3: 7 DAT
Description: The transformed Arabidopsis thaliana T1 plants were initially selected using glufosinate herbicide. The Arabidopsis thaliana T1 plants (PPOA-01) into which the PPOA-01 nucleotide sequence was introduced, the Arabidopsis thaliana T1 plants (PPOB-01) into which the PPOB-01 nucleotide sequence was introduced, the Arabidopsis thaliana T1 plants (PPOC-01) into which the PPOC-01 nucleotide sequence was introduced, the Arabidopsis thaliana T1 plants (PPOD-01) into which the PPOD-01 nucleotide sequence was introduced, the Arabidopsis thaliana T1 plants (PPOE-01) into which the PPOE-01 nucleotide sequence was introduced, the Arabidopsis thaliana T1 plants (PPOF-01) into which the PPOF-01 nucleotide sequence was introduced, the Arabidopsis thaliana T1 plants (PPO-AP-01) into which the PPO-AP-01 nucleotide sequence was introduced, and the Arabidopsis thaliana T1 plants (control vector) into which the control vector was introduced, the wild-type Arabidopsis thaliana plants (CK) (with 24 plants being included in each genotype) (18 days after sowing) were sprayed with saflufenacil at three concentrations (25 g ai/ha (one-fold field concentration, 1×), 100 g ai/ha (four-fold field concentration, 4×), and 0 g ai/ha (water, 0×)), oxyfluorfen at three concentrations (180 g ai/ha (one-fold field concentration, 1×), 720 g ai/ha (four-fold field concentration, 4×), and 0 g ai/ha (water, 0×)), and flumioxazin at three concentrations (60 g ai/ha (one-fold field concentration, 1×), 240 g ai/ha (four-fold field concentration, 4×), and 0 g ai/ha (water, 0×) to determine the tolerance of Arabidopsis thaliana to the herbicides. After 7 days of spraying (7 DAT), the damage level of each plant caused by the herbicide was evaluated according to the average of the damage levels (%) of plants (the average of the damage levels (%) of plants=the injured leaf area/the total leaf area×100%), i.e., the grade of pesticide damage: grade 0 means that the growth status of plants is essentially consistent with those sprayed with the blank solvent (water); grade 1 means that the average of the damage levels of plants is less than 10%; grade 2 means that the average of the damage levels of plants is greater than 10%; and grade 3 means that the average of the damage levels of plants is 100%. The plants having a growth status falling within grades 0 and 1 are classified as highly resistant plants; those having a growth status falling within grade 2 are classified as poorly resistant plants; and those having a growth status falling within grade 3 are classified as non-resistant plants.
The maize plants into which the PPOA-02 nucleotide sequence was introduced, the maize plants into which the PPOB-02 nucleotide sequence was introduced, the maize plants into which the PPOC-02 nucleotide sequence was introduced, the maize plants into which the PPOD-02 nucleotide sequence was introduced, the maize plants into which the PPOE-02 nucleotide sequence was introduced, the maize plants into which the PPOF-02 nucleotide sequence was introduced, the maize plants into which the PPO-AP-02 nucleotide sequence was introduced, the maize plants (control vector) into which the control vector was introduced, and the wild-type maize plants (CK) (with 16 plants being included in each genotype) (18 days after sowing) were taken and sprayed with saflufenacil at three concentrations (50 g ai/ha (two-fold field concentration, 2×), 100 g ai/ha (four-fold field concentration, 4×), and 0 g ai/ha (water, 0×)), oxyfluorfen at three concentrations (360 g ai/ha (two-fold field concentration, 2×), 720 g ai/ha (four-fold field concentration, 4×), and 0 g ai/ha (water, 0×), and flumioxazin at three concentrations (120 g ai/ha (two-fold field concentration, 2×), 240 g ai/ha (four-fold field concentration, 4×), and 0 g ai/ha (water, 0×) to determine the tolerance of maize plants to the herbicides. […]

[1] = genotype Control vector, 360 g ai/ha
[2] = genotype Control vector, 720 g ai/ha
[3] = genotype PPO-AP-02, 360 g ai/ha
[4] = genotype PPO-AP-02, 720 g ai/ha

With `CCOc1cc(Oc2ccc(C(F)(F)F)cc2Cl)ccc1[N+](=O)[O-]` [oxyfluorfen, 2-chloro-1-(3-ethoxy-4-nitrophenoxy)-4-trifluoromethylbenzene] the “The grade of pesticide damage/plant: 0” value (genotype CK, 360 g ai/ha) was 0 plant, the “The grade of pesticide damage/plant: 1” value (genotype CK, 360 g ai/ha) was 0 plant and the “The grade of pesticide damage/plant: 2” value (genotype CK, 360 g ai/ha) was 0 plant. The “The grade of pesticide damage/plant: 3” value (genotype CK, 360 g ai/ha) was 16 plant, the “The grade of pesticide damage/plant: 0” value (genotype CK, 720 g ai/ha) was 0 plant and the “The grade of pesticide damage/plant: 1” value (genotype CK, 720 g ai/ha) was 0 plant. For the same compound, the “The grade of pesticide damage/plant: 2” value (genotype CK, 720 g ai/ha) was 0 plant, the “The grade of pesticide damage/plant: 3” value (genotype CK, 720 g ai/ha) was 16 plant and the “The grade of pesticide damage/plant: 0” value [1] was 0 plant. The “The grade of pesticide damage/plant: 1” value [1] was 0 plant, the “The grade of pesticide damage/plant: 2” value [1] was 0 plant and the “The grade of pesticide damage/plant: 3” value [1] was 16 plant. For the same compound, the “The grade of pesticide damage/plant: 0” value [2] was 0 plant, the “The grade of pesticide damage/plant: 1” value [2] was 0 plant and the “The grade of pesticide damage/plant: 2” value [2] was 0 plant. For the same compound, the “The grade of pesticide damage/plant: 3” value [2] was 16 plant, the “The grade of pesticide damage/plant: 0” value [3] was 0 plant and the “The grade of pesticide damage/plant: 1” value [3] was 0 plant. For the same compound, the “The grade of pesticide damage/plant: 2” value [3] was 8 plant, the “The grade of pesticide damage/plant: 3” value [3] was 8 plant and the “The grade of pesticide damage/plant: 0” value [4] was 0 plant. The “The grade of pesticide damage/plant: 1” value [4] was 0 plant, the “The grade of pesticide damage/plant: 2” value [4] was 0 plant and the “The grade of pesticide damage/plant: 3” value [4] was 16 plant. The “tolerance to the herbicide (in words)” value (genotype PPO-AP-02, four-fold field concentration) was “no tolerance”, the “share of the plants that exhibited no tolerance” value (genotype PPO-AP-02, two-fold field concentration) was “about 50%” and the “The grade of pesticide damage/plant: 0” value (genotype PPOA-02, 360 g ai/ha) was 16 plant. For the same compound, the “The grade of pesticide damage/plant: 1” value (genotype PPOA-02, 360 g ai/ha) was 0 plant, the “The grade of pesticide damage/plant: 2” value (genotype PPOA-02, 360 g ai/ha) was 0 plant and the “The grade of pesticide damage/plant: 3” value (genotype PPOA-02, 360 g ai/ha) was 0 plant. The “The grade of pesticide damage/plant: 0” value (genotype PPOA-02, 720 g ai/ha) was 16 plant, the “The grade of pesticide damage/plant: 1” value (genotype PPOA-02, 720 g ai/ha) was 0 plant and the “The grade of pesticide damage/plant: 2” value (genotype PPOA-02, 720 g ai/ha) was 0 plant. For the same compound, the “The grade of pesticide damage/plant: 3” value (genotype PPOA-02, 720 g ai/ha) was 0 plant, the “The grade of pesticide damage/plant: 0” value (genotype PPOB-02, 360 g ai/ha) was 16 plant and the “The grade of pesticide damage/plant: 1” value (genotype PPOB-02, 360 g ai/ha) was 0 plant. For the same compound, the “The grade of pesticide damage/plant: 2” value (genotype PPOB-02, 360 g ai/ha) was 0 plant, the “The grade of pesticide damage/plant: 3” value (genotype PPOB-02, 360 g ai/ha) was 0 plant and the “The grade of pesticide damage/plant: 0” value (genotype PPOB-02, 720 g ai/ha) was 16 plant. For the same compound, the “The grade of pesticide damage/plant: 1” value (genotype PPOB-02, 720 g ai/ha) was 0 plant, the “The grade of pesticide damage/plant: 2” value (genotype PPOB-02, 720 g ai/ha) was 0 plant and the “The grade of pesticide damage/plant: 3” value (genotype PPOB-02, 720 g ai/ha) was 0 plant. The “The grade of pesticide damage/plant: 0” value (genotype PPOC-02, 360 g ai/ha) was 16 plant, the “The grade of pesticide damage/plant: 1” value (genotype PPOC-02, 360 g ai/ha) was 0 plant and the “The grade of pesticide damage/plant: 2” value (genotype PPOC-02, 360 g ai/ha) was 0 plant. For the same compound, the “The grade of pesticide damage/plant: 3” value (genotype PPOC-02, 360 g ai/ha) was 0 plant, the “The grade of pesticide damage/plant: 0” value (genotype PPOC-02, 720 g ai/ha) was 16 plant and the “The grade of pesticide damage/plant: 1” value (genotype PPOC-02, 720 g ai/ha) was 0 plant. For the same compound, the “The grade of pesticide damage/plant: 2” value (genotype PPOC-02, 720 g ai/ha) was 0 plant, the “The grade of pesticide damage/plant: 3” value (genotype PPOC-02, 720 g ai/ha) was 0 plant and the “The grade of pesticide damage/plant: 0” value (genotype PPOD-02, 360 g ai/ha) was 16 plant. For the same compound, the “The grade of pesticide damage/plant: 1” value (genotype PPOD-02, 360 g ai/ha) was 0 plant, the “The grade of pesticide damage/plant: 2” value (genotype PPOD-02, 360 g ai/ha) was 0 plant and the “The grade of pesticide damage/plant: 3” value (genotype PPOD-02, 360 g ai/ha) was 0 plant. For the same compound, the “The grade of pesticide damage/plant: 0” value (genotype PPOD-02, 720 g ai/ha) was 16 plant, the “The grade of pesticide damage/plant: 1” value (genotype PPOD-02, 720 g ai/ha) was 0 plant and the “The grade of pesticide damage/plant: 2” value (genotype PPOD-02, 720 g ai/ha) was 0 plant. The “The grade of pesticide damage/plant: 3” value (genotype PPOD-02, 720 g ai/ha) was 0 plant, the “The grade of pesticide damage/plant: 0” value (genotype PPOE-02, 360 g ai/ha) was 16 plant and the “The grade of pesticide damage/plant: 1” value (genotype PPOE-02, 360 g ai/ha) was 0 plant. For the same compound, the “The grade of pesticide damage/plant: 2” value (genotype PPOE-02, 360 g ai/ha) was 0 plant, the “The grade of pesticide damage/plant: 3” value (genotype PPOE-02, 360 g ai/ha) was 0 plant and the “The grade of pesticide damage/plant: 0” value (genotype PPOE-02, 720 g ai/ha) was 15 plant. For the same compound, the “The grade of pesticide damage/plant: 1” value (genotype PPOE-02, 720 g ai/ha) was 1 plant, the “The grade of pesticide damage/plant: 2” value (genotype PPOE-02, 720 g ai/ha) was 0 plant and the “The grade of pesticide damage/plant: 3” value (genotype PPOE-02, 720 g ai/ha) was 0 plant. The “The grade of pesticide damage/plant: 0” value (genotype PPOF-02, 360 g ai/ha) was 16 plant, the “The grade of pesticide damage/plant: 1” value (genotype PPOF-02, 360 g ai/ha) was 0 plant and the “The grade of pesticide damage/plant: 2” value (genotype PPOF-02, 360 g ai/ha) was 0 plant. For the same compound, the “The grade of pesticide damage/plant: 3” value (genotype PPOF-02, 360 g ai/ha) was 0 plant, the “The grade of pesticide damage/plant: 0” value (genotype PPOF-02, 720 g ai/ha) was 16 plant and the “The grade of pesticide damage/plant: 1” value (genotype PPOF-02, 720 g ai/ha) was 0 plant. The “The grade of pesticide damage/plant: 2” value (genotype PPOF-02, 720 g ai/ha) was 0 plant, the “The grade of pesticide damage/plant: 3” value (genotype PPOF-02, 720 g ai/ha) was 0 plant and the “tolerance to the herbicide (in words)” value (genotypes PPOA-02 to PPOF-02, four-fold field concentration) was “high-resistant tolerance”. For the same compound, the “tolerance to the herbicide (in words)” value (genotypes PPOA-02 to PPOF-02, two-fold field concentration) was “high-resistant tolerance”.
